The target of assay [1] is T1, Alpha-2B adrenergic receptor (Homo sapiens, UniProt P18089).
T1 sequence (P18089 whole entry): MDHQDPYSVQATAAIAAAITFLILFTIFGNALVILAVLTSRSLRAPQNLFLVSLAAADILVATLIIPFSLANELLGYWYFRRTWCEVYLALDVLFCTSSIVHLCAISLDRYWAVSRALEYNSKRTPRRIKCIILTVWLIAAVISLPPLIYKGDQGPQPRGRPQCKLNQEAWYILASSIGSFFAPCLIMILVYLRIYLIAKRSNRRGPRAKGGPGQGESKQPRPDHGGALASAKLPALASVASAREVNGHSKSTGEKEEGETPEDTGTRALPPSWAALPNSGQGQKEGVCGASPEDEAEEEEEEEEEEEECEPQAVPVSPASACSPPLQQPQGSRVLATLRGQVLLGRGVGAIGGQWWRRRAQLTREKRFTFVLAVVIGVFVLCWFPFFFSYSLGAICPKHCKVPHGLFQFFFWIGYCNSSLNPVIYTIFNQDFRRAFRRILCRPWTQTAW
Description: Binding affinity at human alpha2B AR.

The subject of assay [2] is Mus musculus. Description: Antidepressant-like activity in mouse assessed as reduction in immobility time at 1 to 20 mg/kg, ip by forced swimming test. It is filed as functional, organism-based.
Assay [3] has as its system Mus musculus. Description: Antidepressant-like activity in mouse assessed as reduction in immobility time at 5 mg/kg, ip by forced swimming test. The following applies: route intraperitoneal. The arrangement: scale not given: the % may be the effect or the level left. It is filed as functional.
Assay [4] addresses T2, Alpha-2C adrenergic receptor (Homo sapiens, UniProt P18825).
T2 sequence (P18825 whole entry): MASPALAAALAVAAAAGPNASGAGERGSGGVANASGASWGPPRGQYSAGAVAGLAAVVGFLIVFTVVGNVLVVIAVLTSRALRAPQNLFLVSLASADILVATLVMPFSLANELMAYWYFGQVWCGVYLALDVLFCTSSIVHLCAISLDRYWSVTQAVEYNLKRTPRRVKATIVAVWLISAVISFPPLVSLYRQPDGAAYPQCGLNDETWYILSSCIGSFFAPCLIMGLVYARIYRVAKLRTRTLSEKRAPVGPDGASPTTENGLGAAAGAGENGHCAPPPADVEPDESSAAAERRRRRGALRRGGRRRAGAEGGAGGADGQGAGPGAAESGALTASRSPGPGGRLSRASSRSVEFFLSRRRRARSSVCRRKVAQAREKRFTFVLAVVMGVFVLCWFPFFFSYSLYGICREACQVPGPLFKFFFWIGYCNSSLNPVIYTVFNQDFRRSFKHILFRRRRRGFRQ
Description: Binding affinity at human alpha2C AR.

Assay [5] is described as follows: Binding affinity to I2 imidazoline binding site in rat brain membrane. It is filed as cell membranes.
Assay [6] deals with T3, 5-hydroxytryptamine receptor 1A (Homo sapiens, UniProt P08908).
T3 sequence (P08908 whole entry): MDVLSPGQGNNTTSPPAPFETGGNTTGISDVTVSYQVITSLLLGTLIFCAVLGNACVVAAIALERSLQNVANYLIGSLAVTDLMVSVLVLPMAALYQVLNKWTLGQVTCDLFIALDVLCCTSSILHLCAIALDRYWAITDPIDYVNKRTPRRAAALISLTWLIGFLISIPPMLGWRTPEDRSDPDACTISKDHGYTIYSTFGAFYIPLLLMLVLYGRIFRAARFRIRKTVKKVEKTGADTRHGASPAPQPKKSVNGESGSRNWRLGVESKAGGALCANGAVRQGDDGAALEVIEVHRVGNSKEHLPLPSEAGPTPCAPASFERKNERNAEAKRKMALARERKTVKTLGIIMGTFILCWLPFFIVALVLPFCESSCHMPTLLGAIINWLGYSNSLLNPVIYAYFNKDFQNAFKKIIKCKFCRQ
Description: Binding affinity at human 5HT1A receptor.

The target in assay [7] is T4, Alpha-2A adrenergic receptor (Homo sapiens) (UniProt P08913).
T4 sequence (whole entry): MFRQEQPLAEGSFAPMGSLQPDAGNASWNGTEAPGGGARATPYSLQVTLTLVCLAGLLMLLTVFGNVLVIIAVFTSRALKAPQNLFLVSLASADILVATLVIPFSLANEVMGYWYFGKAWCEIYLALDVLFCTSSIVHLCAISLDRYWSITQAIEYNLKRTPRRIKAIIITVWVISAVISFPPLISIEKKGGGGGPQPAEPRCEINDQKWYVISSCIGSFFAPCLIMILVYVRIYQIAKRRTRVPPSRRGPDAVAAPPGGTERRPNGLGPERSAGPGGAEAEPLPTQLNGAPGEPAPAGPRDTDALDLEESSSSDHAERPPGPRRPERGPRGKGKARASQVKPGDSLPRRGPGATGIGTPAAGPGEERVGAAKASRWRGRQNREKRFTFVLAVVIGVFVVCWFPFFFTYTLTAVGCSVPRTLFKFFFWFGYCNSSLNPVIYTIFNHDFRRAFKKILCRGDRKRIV
Description: Antagonist activity at human alpha2A AR.

Assay [8] deals with Mus musculus. Description: Antidepressant-like activity in mouse assessed as reduction in immobility time at 0.05 mg/kg, ip by forced swimming test. Format: functional, organism-based. The arrangement: dose 0.05 mg/kg.
The target of assay [9] is T5, 5-hydroxytryptamine receptor 1A (Homo sapiens) (UniProt P08908).
T5 sequence (whole entry): T3 sequence (P08908 whole entry)
Description: Agonist activity at human 5HT1A receptor assessed as intrinsic activity.

For assay [10], the system named is Mus musculus. Description: Antidepressant-like activity in mouse assessed as reduction in immobility time at 5 mg/kg, ip by forced swimming test in presence of idazoxan. It is filed as functional, organism-based. Details: dose 5 mg/kg.
The test system of assay [11] is Mus musculus. Description: Antidepressant-like activity in mouse assessed as reduction in immobility time at 5 mg/kg, ip by forced swimming test in presence of WAY 100635. The arrangement: dose 5 mg/kg. It is filed as functional, organism-based.
The target of assay [12] is T1, Alpha-2B adrenergic receptor. Description: Agonist activity at human alpha2B AR.
Assay [13] deals with Mus musculus. Description: Reduction in morphine dependence expression in mouse assessed as decrease in expression of naloxone-precipitated withdrawal syndrome measuring jumping at 5 mg/kg, ip. The following applies: route intraperitoneal. The arrangement: scale not given: the % may be the effect or the level left. It is filed as functional.
The test system of assay [14] is Mus musculus. Description: Reduction in morphine dependence expression in mouse assessed as decrease in expression of naloxone-precipitated withdrawal syndrome measuring somatic signs at 5 mg/kg, ip. It is filed as functional. Details: scale not given: the % may be the effect or the level left. The following applies: route intraperitoneal.
Assay [15] has as its target T2, Alpha-2C adrenergic receptor. Description: Agonist activity at human alpha2C AR.
Assay [16] deals with T6, Alpha-2A adrenergic receptor (Homo sapiens, UniProt P08913).
T6 sequence (P08913 whole entry): T4 sequence (whole entry)
Description: Binding affinity at human alpha2A AR.

Data on one compound can be found in ChEMBL document CHEMBL2429812, “Exploring multitarget interactions to reduce opiate withdrawal syndrome and psychiatric comorbidity” (ACS Med Chem Lett, 2013).

Each structure is given as a SMILES string. The source made the active and inactive calls. No cut-off for these calls is given here.

Turning to `C=CCc1ccccc1OCC1=NCCN1`, the Ki in assay [1] was 708 nM; in assay [4] it was 70.8 nM; in assay [6], 70.8 nM; in assay [16], 126 nM. For the same compound, the result in the assay on Mus musculus [2] and in the assay on Mus musculus [11] was Active. Moreover, the Activity was 50% in the assay on Mus musculus [3], above 50% with Mus musculus [13] and above 50% with Mus musculus [14]. This compound had a pKi in assay [5] of 8.88. In assay [7], this compound returned a negative-log Kb (pKb) of 6.5. In addition, the result in the assay on Mus musculus [8] and in the assay on Mus musculus [10] was inactive. In assay [9], the Intrinsic activity is 0.73. Moreover, the concentration giving a half-maximal response (EC50) in assay [12] was 977 nM; in [15] it was 61.7 nM.
